Laboratory results taken from ChEMBL document CHEMBL1201862, “PubChem BioAssay data set” (2004).
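Cells were grown in 96-well plates and exposed to each compound for 48 hours at five concentrations; endpoints were interpolated linearly between bracketing concentrations, or set to the highest concentration if not reached. GI50: concentration for 50% inhibition of growth.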 Activity calls are given as the source filed them. No stated cut-off is given here; in the data, active = GI50 up to about 1.1 µM and inactive = higher.

Columns and labels:
Experiment in all cases: NCI tumour cell line growth inhibition, 48 h
SK-MEL-5 = tested on: SK-MEL-5
IGROV-1 = tested on: IGROV-1
PC-3 = tested on: PC-3
OVCAR-5 = tested on: OVCAR-5
SK-OV-3 = tested on: SK-OV-3
SNB-75 = tested on: SNB-75
COLO 205 = tested on: COLO 205
UO-31 = tested on: UO-31
MDA-MB-231 = tested on: MDA-MB-231
KM12 = tested on: KM12
MDA-N = tested on: MDA-N
K562 = tested on: K562
U-251 = tested on: U-251
SK-MEL-28 = tested on: SK-MEL-28
SW-620 = tested on: SW-620
HT-29 = tested on: HT-29
MCF7 = tested on: MCF7
MDA-MB-435 = tested on: MDA-MB-435
HOP-92 = tested on: HOP-92

SMILES | GI50 (SK-MEL-5) | GI50 (IGROV-1) | GI50 (PC-3) | GI50 (OVCAR-5) | GI50 (SK-OV-3) | GI50 (SNB-75) | GI50 (COLO 205) | GI50 (UO-31) | GI50 (MDA-MB-231) | GI50 (KM12) | GI50 (MDA-N) | GI50 (K562) | GI50 (U-251) | GI50 (SK-MEL-28) | GI50 (SW-620) | GI50 (HT-29) | GI50 (MCF7) | GI50 (MDA-MB-435) | GI50 (HOP-92)
COc1ccc(C[C@H]2NC(=O)/C=C/C[C@@H]([C@H](C)[C@H]3O[C@@H]3c3ccccc3)OC(=O)[C@H](CC(C)C)OC(=O)[C@H](C)CNC2=O)cc1 | 7.53e-06 µM (active) | 3.24e-05 µM (active) | 2.09e-05 µM (active) | 3.94e-05 µM (active) | 2.06e-05 µM (active) | 1.47e-05 µM (active) | 1.99e-05 µM (active) | 4.71e-05 µM (active) | 4.49e-05 µM (active) | 3.93e-05 µM (active) | 5.31e-06 µM (active) | 9.27e-06 µM (active) | 2.86e-05 µM (active) | 4.83e-05 µM (active) | 1.4e-05 µM (active) | 8.18e-06 µM (active) | > 8.95e-05 µM (active) | 3.37e-06 µM (active) | –
CC1=CC(=O)/C(=C/NC(=S)Nc2ccc(S(N)(=O)=O)cc2)C(=O)O1 | > 100 µM (inactive) | > 100 µM (inactive) | – | > 100 µM (inactive) | > 100 µM (inactive) | > 100 µM (inactive) | > 100 µM (inactive) | > 100 µM (inactive) | > 100 µM (inactive) | > 100 µM (inactive) | > 100 µM (inactive) | – | > 100 µM (inactive) | > 100 µM (inactive) | > 100 µM (inactive) | > 100 µM (inactive) | > 100 µM (inactive) | > 100 µM (inactive) | > 100 µM (inactive)
COc1ccc(/C=N/n2c(-c3ccccc3)n[nH]c2=O)cc1 | – | – | > 100 µM (inactive) | > 100 µM (inactive) | > 100 µM (inactive) | > 100 µM (inactive) | > 100 µM (inactive) | 95.3 µM (inactive) | > 100 µM (inactive) | 48.8 µM (inactive) | > 100 µM (inactive) | > 100 µM (inactive) | > 100 µM (inactive) | > 100 µM (inactive) | > 100 µM (inactive) | > 100 µM (inactive) | > 100 µM (inactive) | > 100 µM (inactive) | –
CC1CC(Nc2ccc(Br)cc2)N(C(=O)c2ccc(Br)cc2)O1 (stereo not given) | > 10 µM (inactive) | 9.73 µM (inactive) | 2.23 µM (inactive) | 6.37 µM (inactive) | > 10 µM (inactive) | 8.28 µM (inactive) | 3.49 µM (inactive) | 2.34 µM (inactive) | > 10 µM (inactive) | – | 8.93 µM (inactive) | 0.435 µM (active) | – | > 10 µM (inactive) | 1.31 µM (inactive) | 1.73 µM (inactive) | 5.81 µM (inactive) | 1.09 µM (active) | –
C[C@H]1S[C@H](c2c(F)cccc2F)n2c1nc1ccccc12 | 20.2 µM (inactive) | > 100 µM (inactive) | 33.7 µM (inactive) | 66.8 µM (inactive) | 38.4 µM (inactive) | > 100 µM (inactive) | 37 µM (inactive) | 34.4 µM (inactive) | 68.7 µM (inactive) | 86.5 µM (inactive) | 59.2 µM (inactive) | 35.3 µM (inactive) | 54.5 µM (inactive) | 71.3 µM (inactive) | 88.1 µM (inactive) | 47.3 µM (inactive) | 33.8 µM (inactive) | 34 µM (inactive) | –
N#CC1C(=O)Nc2sc(C(=O)c3ccc(Br)cc3)c(N)c2C12CCCCC2 (stereo not given) | 14.6 µM (inactive) | 20.2 µM (inactive) | 10.4 µM (inactive) | 40.5 µM (inactive) | 46.3 µM (inactive) | 33.1 µM (inactive) | 13.7 µM (inactive) | 16.8 µM (inactive) | 23 µM (inactive) | 13.4 µM (inactive) | 17 µM (inactive) | 23.2 µM (inactive) | 25.1 µM (inactive) | 16 µM (inactive) | 16.6 µM (inactive) | 33.4 µM (inactive) | 16.5 µM (inactive) | 18.9 µM (inactive) | –
COc1ccc(N2C(=O)C3c4[nH]c5ccc(OCc6ccccc6)cc5c4C4CCC(C(C)(C)C)CC4C3C2=O)cc1 (stereo not given) | > 100 µM (inactive) | > 100 µM (inactive) | > 100 µM (inactive) | > 100 µM (inactive) | > 100 µM (inactive) | – | > 100 µM (inactive) | – | 53.2 µM (inactive) | > 100 µM (inactive) | > 100 µM (inactive) | > 100 µM (inactive) | 27.1 µM (inactive) | 65.6 µM (inactive) | 94.6 µM (inactive) | > 100 µM (inactive) | 85.3 µM (inactive) | 97.7 µM (inactive) | –
CC1(C)CC(=O)c2c(nc3ccc4ccccc4c3c2-c2ccc(NC(=O)CCC(=O)Nc3ccc(-c4c5c(nc6ccc7ccccc7c46)CC(C)(C)CC5=O)cc3)cc2)C1 | > 100 µM (inactive) | > 100 µM (inactive) | > 100 µM (inactive) | > 100 µM (inactive) | > 100 µM (inactive) | 28.2 µM (inactive) | > 100 µM (inactive) | > 100 µM (inactive) | > 100 µM (inactive) | > 100 µM (inactive) | > 100 µM (inactive) | > 100 µM (inactive) | > 100 µM (inactive) | > 100 µM (inactive) | > 100 µM (inactive) | > 100 µM (inactive) | > 100 µM (inactive) | > 100 µM (inactive) | –
CN1CCN(c2ccc3nc(C4=C(O)C(=O)c5c(nc(CCl)n5C)C4=O)[nH]c3n2)CC1 | 24.2 µM (inactive) | 8.38 µM (inactive) | 16.9 µM (inactive) | 14.2 µM (inactive) | 10.5 µM (inactive) | 3.72 µM (inactive) | 10.3 µM (inactive) | 2.47 µM (inactive) | 10.9 µM (inactive) | 9.71 µM (inactive) | 9.75 µM (inactive) | 24.2 µM (inactive) | 8.77 µM (inactive) | 19.3 µM (inactive) | 20 µM (inactive) | 11.6 µM (inactive) | 8.89 µM (inactive) | 9.86 µM (inactive) | –
OC1(c2ccccc2)CSc2ncnn21 (stereo not given) | > 100 µM (inactive) | > 100 µM (inactive) | > 100 µM (inactive) | – | > 100 µM (inactive) | > 100 µM (inactive) | > 100 µM (inactive) | > 100 µM (inactive) | > 100 µM (inactive) | > 100 µM (inactive) | > 100 µM (inactive) | > 100 µM (inactive) | > 100 µM (inactive) | – | > 100 µM (inactive) | > 100 µM (inactive) | > 100 µM (inactive) | > 100 µM (inactive) | > 100 µM (inactive)
N#Cc1c(NC(=S)Nc2ccc(Cl)cc2)sc2c1CCN(N1CCc3c(sc(NC(=S)Nc4ccc(Cl)cc4)c3C#N)C1)C2 | 10.5 µM (inactive) | 16.1 µM (inactive) | 37.4 µM (inactive) | 13.8 µM (inactive) | > 100 µM (inactive) | 69 µM (inactive) | 16 µM (inactive) | 14.9 µM (inactive) | 12.7 µM (inactive) | 55.2 µM (inactive) | 28.7 µM (inactive) | 22.4 µM (inactive) | 29.2 µM (inactive) | 24 µM (inactive) | 30.1 µM (inactive) | 13.6 µM (inactive) | 37.2 µM (inactive) | 27.1 µM (inactive) | –
COc1cccc2c(Nc3ccc(S(=O)(=O)N=C(N)N)cc3)c3ccc([N+](=O)[O-])cc3nc12 | 11.6 µM (inactive) | 8.2 µM (inactive) | 18.7 µM (inactive) | 44.6 µM (inactive) | 28.6 µM (inactive) | – | 18.8 µM (inactive) | 16.3 µM (inactive) | 2.34 µM (inactive) | 3.99 µM (inactive) | 17.6 µM (inactive) | 6 µM (inactive) | 5.61 µM (inactive) | 35.2 µM (inactive) | 16.7 µM (inactive) | 32.8 µM (inactive) | 4.09 µM (inactive) | 23.6 µM (inactive) | 12.3 µM (inactive)
c1ccc([P+](c2ccccc2)(c2ccccc2)C2c3ccccc3-c3ccccc32)cc1 | 1.77 µM (inactive) | 1.98 µM (inactive) | 1.47 µM (inactive) | 2.59 µM (inactive) | 1.33 µM (inactive) | 2.45 µM (inactive) | 1.33 µM (inactive) | 2.67 µM (inactive) | 2.52 µM (inactive) | – | 0.895 µM (active) | 1.9 µM (inactive) | 1.57 µM (inactive) | 3.01 µM (inactive) | 3.08 µM (inactive) | 0.74 µM (active) | 2.25 µM (inactive) | 0.655 µM (active) | –
C[C@]12CC[C@H](O)CC1=CC[C@@H]1[C@@H]2CC[C@]2(C)/C(=N/OCCN3CCCC3)CC[C@@H]12 | 14.6 µM (inactive) | 16.2 µM (inactive) | 17.8 µM (inactive) | 28.2 µM (inactive) | – | 19.3 µM (inactive) | 16 µM (inactive) | 16.7 µM (inactive) | 19.9 µM (inactive) | 13.7 µM (inactive) | 17.9 µM (inactive) | 4.36 µM (inactive) | 17.5 µM (inactive) | 16.5 µM (inactive) | 16.4 µM (inactive) | 2.7 µM (inactive) | 19.1 µM (inactive) | 15.8 µM (inactive) | –
O=C1CCCCC/C1=C\c1ccccc1 | 45 µM (inactive) | > 100 µM (inactive) | > 100 µM (inactive) | > 100 µM (inactive) | > 100 µM (inactive) | 87.3 µM (inactive) | > 100 µM (inactive) | > 100 µM (inactive) | > 100 µM (inactive) | > 100 µM (inactive) | > 100 µM (inactive) | > 100 µM (inactive) | > 100 µM (inactive) | > 100 µM (inactive) | > 100 µM (inactive) | > 100 µM (inactive) | – | 76 µM (inactive) | > 100 µM (inactive)
